Source: patent US20060069132A1, “Azolecarboxamide herbicides” (priority 2004, published 2006)

Assays:
barnyardgrass = assay: Test B pre-/postemergence herbicide test; format: in vivo, Echinochloa crus-galli; details: for Barnyardgrass plant response rating (0 to 100 scale) / Plant response rating, Barnyardgrass: 0 = no effect, 100 = complete control, preemergence; for Barnyardgrass plant response rating: postemergence
Procedure, shortened: (§1)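 Species tested were Echinochloa crus-galli, Ipomoea coccinea, Xanthium strumarium and Oryza sativa, treated both before emergence and at the 1- to 4-leaf stage; rice and barnyardgrass were also tested under flooding at 2 leaves. Greenhouse incubation lasted 13–15 days before visual 0–100 scoring.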

Surinam grass = assay: Test B pre-/postemergence herbicide test; format: in vivo, Urochloa decumbens; details: for Surinam Grass plant response rating (0 to 100 scale) / Plant response rating, Surinam Grass: 0 = no effect, 100 = complete control, preemergence; for Surinam Grass plant response rating: postemergence
Procedure, shortened: (§2)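 Greenhouse pot assay with simultaneous preemergence (treated seed) and postemergence (2–18 cm seedlings) applications of surfactant-containing, non-phytotoxic solvent formulations. Response scored visually 13–15 days later on a 0–100 scale, 100 meaning complete control.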

corn = assay: Test B pre-/postemergence herbicide test; format: in vivo, Zea mays; details: for Corn plant response rating (0 to 100 scale) / Plant response rating, Corn: 0 = no effect, 100 = complete control, preemergence; for Corn plant response rating: postemergence
Procedure, shortened: as §2

large crabgrass = assay: Test B pre-/postemergence herbicide test; format: in vivo, Digitaria sanguinalis; details: for Crabgrass, Large plant response rating (0 to 100 scale) / Plant response rating, Crabgrass, Large: 0 = no effect, 100 = complete control, preemergence; for Crabgrass, Large plant response rating: postemergence
Procedure, shortened: as §2

giant foxtail = assay: Test B pre-/postemergence herbicide test; format: in vivo, Setaria faberi; details: for Foxtail, Giant plant response rating (0 to 100 scale) / Plant response rating, Foxtail, Giant: 0 = no effect, 100 = complete control, preemergence; for Foxtail, Giant plant response rating: postemergence
Procedure, shortened: as §2

lambsquarters = assay: Test B pre-/postemergence herbicide test; format: in vivo, Chenopodium album; details: for Lambsquarters plant response rating (0 to 100 scale) / Plant response rating, Lambsquarters: 0 = no effect, 100 = complete control, preemergence; for Lambsquarters plant response rating: postemergence
Procedure, shortened: as §2

morningglory = assay: Test B pre-/postemergence herbicide test; format: in vivo, Ipomoea coccinea; details: for Morningglory plant response rating (0 to 100 scale) / Plant response rating, Morningglory: 0 = no effect, 100 = complete control, preemergence; for Morningglory plant response rating: postemergence
Procedure, shortened: as §1

pigweed = assay: Test B pre-/postemergence herbicide test; format: in vivo, Amaranthus retroflexus; details: for Pigweed plant response rating (0 to 100 scale) / Plant response rating, Pigweed: 0 = no effect, 100 = complete control, preemergence; for Pigweed plant response rating: postemergence
Procedure, shortened: as §2

velvetleaf = assay: Test B pre-/postemergence herbicide test; format: in vivo, Abutilon theophrasti; details: for Velvetleaf plant response rating: postemergence; for Plant response rating, Velvetleaf: 0 = no effect, 100 = complete control, preemergence
Procedure, shortened: as §2

blackgrass = assay: Test B postemergence herbicide test; format: in vivo, Alopecurus myosuroides; details: postemergence
Procedure, shortened: (§3)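 Plants grow to 1- to 4-leaf stage (2–18 cm) for postemergence spraying, or to 2-leaf stage for the paddy test. Formulated compound is applied. Greenhouse holding lasts 13–15 days. Response is scored visually relative to controls, 0 no effect to 100 complete control; a dash means no result.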

wheat = assay: Test B postemergence herbicide test; format: in vivo, Triticum aestivum; parameters: key to Wheat plant response rating: 0 = no effect, 100 = complete control; details: postemergence
Procedure, shortened: (§4)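 Formulated test chemicals went onto postemergence plants measuring 2 to 18 cm, at one to four leaves. For the paddy assay, species had reached two leaves. Scoring took place 13–15 days later by eye, relative to untreated plants, using 0 for no effect up to 100 for full control.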

wild oat = assay: Test B postemergence herbicide test; format: in vivo, Avena fatua; details: postemergence
Procedure, shortened: as §4

rice = assay: Test B flooded paddy test; format: in vivo, Oryza sativa; details: 1000 g ai/ha, scale 0 to 100 (0 no effect, 100 complete control)
Procedure, shortened: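 Greenhouse test; postemergence application to plants at 1–4 leaves (2–18 cm); paddy species at 2 leaves; evaluated visually vs controls at 13–15 days; scale 0–100 (100 = complete control).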

[1] = system: small flower umbrella sedge; assay: Test B flooded paddy test; format: in vivo, Cyperus difformis; details: 1000 g ai/ha, scale 0 to 100 (0 no effect, 100 complete control)
Procedure, shortened: as §3

ducksalad = assay: Test B flooded paddy test; format: in vivo, Heteranthera limosa; details: 1000 g ai/ha, scale 0 to 100 (0 no effect, 100 complete control)
Procedure, shortened: as §3

[2] = 125 g ai/ha, visual rating, scale 0 (no effect) to 100 (complete control)
[3] = 500 g ai/ha, scale 0 to 100, 0 is no effect, 100 is complete control

Compound: CCn1nc(C(C)(C)C)cc1C(=S)Nc1cc(C(=S)N(C)C)ccc1F [Compound 305]
- Barnyardgrass plant response rating (0 to 100 scale) (barnyardgrass; 125 g ai/ha): 80
- Barnyardgrass plant response rating (barnyardgrass; [2]): 0
- Plant response rating, Barnyardgrass (barnyardgrass; 500 g ai/ha, visual rating): 90
- Barnyardgrass plant response rating (barnyardgrass; [3]): 0
- Surinam Grass plant response rating (0 to 100 scale) (Surinam grass; 125 g ai/ha): 80
- Surinam Grass plant response rating (Surinam grass; [2]): 0
- Plant response rating, Surinam Grass (Surinam grass; 500 g ai/ha, visual rating): 100
- Surinam Grass plant response rating (Surinam grass; [3]): 20
- Corn plant response rating (0 to 100 scale) (corn; 125 g ai/ha): 10
- Corn plant response rating (corn; [2]): 70
- Plant response rating, Corn (corn; 500 g ai/ha, visual rating): 60
- Corn plant response rating (corn; [3]): 70
- Crabgrass, Large plant response rating (0 to 100 scale) (large crabgrass; 125 g ai/ha): 90
- Crabgrass, Large plant response rating (large crabgrass; [2]): 0
- Plant response rating, Crabgrass, Large (large crabgrass; 500 g ai/ha, visual rating): 100
- Crabgrass, Large plant response rating (large crabgrass; [3]): 0
- Foxtail, Giant plant response rating (0 to 100 scale) (giant foxtail; 125 g ai/ha): 80
- Foxtail, Giant plant response rating (giant foxtail; [2]): 20
- Plant response rating, Foxtail, Giant (giant foxtail; 500 g ai/ha, visual rating): 100
- Foxtail, Giant plant response rating (giant foxtail; [3]): 20
- Lambsquarters plant response rating (0 to 100 scale) (lambsquarters; 125 g ai/ha): 100
- Lambsquarters plant response rating (lambsquarters; [2]): 50
- Plant response rating, Lambsquarters (lambsquarters; 500 g ai/ha, visual rating): 100
- Lambsquarters plant response rating (lambsquarters; [3]): 80
- Morningglory plant response rating (0 to 100 scale) (morningglory; 125 g ai/ha): 0
- Morningglory plant response rating (morningglory; [2]): 0
- Plant response rating, Morningglory (morningglory; 500 g ai/ha, visual rating): 0
- Morningglory plant response rating (morningglory; [3]): 0
- Pigweed plant response rating (0 to 100 scale) (pigweed; 125 g ai/ha): 100
- Pigweed plant response rating (pigweed; [2]): 0
- Plant response rating, Pigweed (pigweed; 500 g ai/ha, visual rating): 100
- Pigweed plant response rating (pigweed; [3]): 70
- Velvetleaf plant response rating (velvetleaf; [2]): 20
- Plant response rating, Velvetleaf (velvetleaf; 500 g ai/ha, visual rating): 100
- Velvetleaf plant response rating (velvetleaf; [3]): 20
- Blackgrass plant response rating (blackgrass; [2]): 20
- Blackgrass plant response rating (blackgrass; [3]): 30
- Wheat plant response rating (wheat; [2]): 0
- Wheat plant response rating (wheat; [3]): 10
- Oat, Wild plant response rating (wild oat; [2]): 10
- Oat, Wild plant response rating (wild oat; [3]): 30
- Rice plant response rating (rice): 70
- Sedge, Umbrella plant response rating [1]: 90
- Ducksalad plant response rating (ducksalad): 80

Compound: CCNC(=O)c1cccc(NC(=O)c2cc(C3(C)CC3)nn2CC)c1 [Compound 306]
- Barnyardgrass plant response rating (0 to 100 scale) (barnyardgrass; 125 g ai/ha): 60
- Barnyardgrass plant response rating (barnyardgrass; [2]): 10
- Plant response rating, Barnyardgrass (barnyardgrass; 500 g ai/ha, visual rating): 90
- Barnyardgrass plant response rating (barnyardgrass; [3]): 10
- Surinam Grass plant response rating (0 to 100 scale) (Surinam grass; 125 g ai/ha): 30
- Surinam Grass plant response rating (Surinam grass; [2]): 10
- Plant response rating, Surinam Grass (Surinam grass; 500 g ai/ha, visual rating): 90
- Surinam Grass plant response rating (Surinam grass; [3]): 30
- Corn plant response rating (0 to 100 scale) (corn; 125 g ai/ha): 70
- Corn plant response rating (corn; [2]): 30
- Plant response rating, Corn (corn; 500 g ai/ha, visual rating): 100
- Corn plant response rating (corn; [3]): 30
- Crabgrass, Large plant response rating (0 to 100 scale) (large crabgrass; 125 g ai/ha): 100
- Crabgrass, Large plant response rating (large crabgrass; [2]): 10
- Plant response rating, Crabgrass, Large (large crabgrass; 500 g ai/ha, visual rating): 100
- Crabgrass, Large plant response rating (large crabgrass; [3]): 50
- Foxtail, Giant plant response rating (0 to 100 scale) (giant foxtail; 125 g ai/ha): 40
- Foxtail, Giant plant response rating (giant foxtail; [2]): 10
- Plant response rating, Foxtail, Giant (giant foxtail; 500 g ai/ha, visual rating): 100
- Foxtail, Giant plant response rating (giant foxtail; [3]): 40
- Lambsquarters plant response rating (0 to 100 scale) (lambsquarters; 125 g ai/ha): 100
- Lambsquarters plant response rating (lambsquarters; [2]): 70
- Plant response rating, Lambsquarters (lambsquarters; 500 g ai/ha, visual rating): 100
- Lambsquarters plant response rating (lambsquarters; [3]): 80
- Morningglory plant response rating (0 to 100 scale) (morningglory; 125 g ai/ha): 10
- Plant response rating, Morningglory (morningglory; 500 g ai/ha, visual rating): 10
- Morningglory plant response rating (morningglory; [3]): 70
- Pigweed plant response rating (0 to 100 scale) (pigweed; 125 g ai/ha): 100
- Pigweed plant response rating (pigweed; [2]): 70
- Plant response rating, Pigweed (pigweed; 500 g ai/ha, visual rating): 100
- Pigweed plant response rating (pigweed; [3]): 100
- Velvetleaf plant response rating (velvetleaf; [2]): 40
- Plant response rating, Velvetleaf (velvetleaf; 500 g ai/ha, visual rating): 100
- Velvetleaf plant response rating (velvetleaf; [3]): 60
- Blackgrass plant response rating (blackgrass; [2]): 10
- Blackgrass plant response rating (blackgrass; [3]): 30
- Wheat plant response rating (wheat; [2]): 10
- Wheat plant response rating (wheat; [3]): 20
- Oat, Wild plant response rating (wild oat; [2]): 20
- Oat, Wild plant response rating (wild oat; [3]): 30
- Rice plant response rating (rice): 60
- Sedge, Umbrella plant response rating [1]: 80
- Ducksalad plant response rating (ducksalad): 80
